This passage reports pest or weed control, inhibition of growth and melting point results from patent US10662182B2, “Microbiocidal thiazole derivatives” (SYNGENTA PARTICIPATIONS AG, priority 2016, dated 2020).

Series [1] relates to Blumeria graminis f. Sp. Tritici (Erysiphe graminis f. Sp. Tritici). Kind of series: Blumeria graminis f. sp. tritici / wheat / leaf disc preventative (powdery mildew on wheat). The settings on record: foliar, 200 ppm in the formulation, wheat leaf segments cv. Kanzler, compared to untreated checks, read-out: disease control. The series is classed as in vivo. The text has this: Blumeria graminis f. Sp. Tritici (Erysiphe graminis f. Sp. Tritici)/Wheat/Leaf Disc Preventative (Powdery Mildew on Wheat) Wheat leaf segments cv. Kanzler are placed on agar in a multiwell plate (24-well format) and sprayed with the test compound formulated with DMSO and Tween20 and diluted in water. The leaf disks are inoculated by shaking powdery mildew infected plants above the test plates 1 day after application.

The subject of series [2] is Glomerella lacenarium (Colletotrichum lacenarium). Put plainly: Glomerella lagenarium / liquid culture (anthracnose). Format: cell-based. The settings on record: 200 ppm in the formulation, inhibition of growth measured photometrically, compared to untreated checks, read-out: disease control. Here is the method:
Glomerella lacenarium (Colletotrichum lacenarium)/Liquid Culture (Anthracnose) Conidia of the fungus from cryogenic storage are directly mixed into nutrient broth (PDB potato dextrose broth). After placing a (DMSO) solution of test compound into a microtiter plate (96-well format), the nutrient broth containing the fungal spores is added. The test plates are incubated at 24° C. and the inhibition of growth is measured photometrically 3 to 4 days after application.

Series [3] has as its system Magnaporthe risea (Pyricularia oryzae). Put plainly: whole plant or invertebrate. The series is classed as in vivo. The conditions noted are these: foliar, read-out: disease control.
For series [4], the system named is Monocraphella nivalis (Microdochium nivale). Kind of series: Monographella nivalis / liquid culture (foot rot cereals). The series is classed as cell-based. The conditions noted are these: 200 ppm in the formulation, inhibition of growth determined photometrically, compared to untreated checks, read-out: disease control. Here is the method: Monocraphella nivalis (Microdochium nivale)/Liquid Culture (Foot Rot Cereals) Conidia of the fungus from cryogenic storage are directly mixed into nutrient broth (PDB potato dextrose broth). After placing a (DMSO) solution of test compound into a microtiter plate (96-well format), the nutrient broth containing the fungal spores is added. The test plates are incubated at 24° C. and the inhibition of growth is determined photometrically 4-5 days after application.

Series [5] has as its system Mycosphaerella arachidis (Cercospora arachidicola). Put plainly: Mycosphaerella arachidis / liquid culture (early leaf spot). The series is classed as cell-based. The conditions noted are these: 200 ppm in the formulation, inhibition of growth determined photometrically, compared to untreated checks, read-out: disease control. Here is the method: Mycosphaerella arachidis (Cercospora arachidicola)/Liquid Culture (Early Leaf Spot) Conidia of the fungus from cryogenic storage are directly mixed into nutrient broth (PDB potato dextrose broth). After placing a (DMSO) solution of test compound into a microtiter plate (96-well format), the nutrient broth containing the fungal spores is added. The test plates are incubated at 24° C. and the inhibition of growth is determined photometrically 4-5 days after application.

Series [6] has as its system Mycosphaerella raminicola (Septoria tritici). Put plainly: Mycosphaerella graminicola / liquid culture (Septoria blotch). The conditions noted are these: 200 ppm in the formulation, inhibition of growth determined photometrically, compared to untreated checks, read-out: disease control. Format: cell-based. Here is the method:
Mycosphaerella raminicola (Septoria tritici)/Liquid Culture (Septoria blotch) Conidia of the fungus from cryogenic storage are directly mixed into nutrient broth (PDB potato dextrose broth). After placing a (DMSO) solution of test compound into a microtiter plate (96-well format), the nutrient broth containing the fungal spores is added. The test plates are incubated at 24° C. and the inhibition of growth is determined photometrically 4 to 5 days after application.

The test system of series [7] is Puccinia recondita f. Sp. Tritici. Kind of series: Puccinia recondita f. sp. tritici / wheat / leaf disc preventative (brown rust). The series is classed as in vivo. The conditions noted are these: foliar, 200 ppm in the formulation, wheat leaf segments cv. Kanzler, compared to untreated checks, read-out: disease control.
In the next series the test system is Pyrenophora teres. Put plainly: Pyrenophora teres / barley / leaf disc preventative (net blotch). The conditions noted are these: foliar, 200 ppm of the formulation, barley leaf segments cv. Hasso, compared to untreated checks, read-out: disease control. Format: in vivo. The protocol:
Pyrenophora teres/Barley/Leaf Disc Preventative (Net Blotch) Barley leaf segments cv. Hasso are placed on agar in a multiwell plate (24-well format) and sprayed with the test compound formulated with DMSO and Tween20 and diluted in water. The leaf segments are inoculated with a spore suspension of the fungus 2 days after application. The inoculated leaf segments are incubated at 20° C. and 65% rh under a light regime of 12 h light/12 h darkness in a climate cabinet and the activity of a compound is assessed as disease control compared to untreated when an appropriate level of disease damage appears in untreated check leaf segments (5 to 7 days after application).

For series [8], the system named is Botrvotinia fuckeliana (Botrvtis cinerea). Kind of series: Botryotinia fuckeliana / liquid culture (gray mould). The series is classed as cell-based. The conditions noted are these: Botrytis cinerea, 200 ppm in the formulation, inhibition of growth determined photometrically, compared to untreated checks, read-out: disease control. Here is the method: Botrvotinia fuckeliana (Botrvtis cinerea)/Liquid Culture (Gray Mould) Conidia of the fungus from cryogenic storage are directly mixed into nutrient broth (Vogels broth). After placing a (DMSO) solution of test compound into a microtiter plate (96-well format), the nutrient broth containing the fungal spores is added. The test plates are incubated at 24° C. and the inhibition of growth is determined photometrically 3-4 days after application.

Broadly, the melting point is the temperature, or range, at which the solid turns liquid. The molecule `Cc1sc(Nc2cc(F)nc(F)c2)nc1C(=O)NC1CC12CC2` (stereo not drawn) [I.bb.43, 2-[(2,6-difluoro-4-pyridyl)amino]-5-methyl-N-spiro[2.2]pentan-2-yl-thiazole-4-carboxamide] displayed a melting point of 129 to 158 °C. Further, in series [1], the pest or weed control at 200 ppm was not below 80%. Also, the inhibition of growth at 200 ppm in series [2] was not below 80%. In series [3], the pest or weed control at 200 ppm is not below 80%. The inhibition of growth at 200 ppm in series [4] is not below 80%. The inhibition of growth at 200 ppm in series [5] was not below 80%. Also, in series [6], the inhibition of growth at 200 ppm was not below 80%. The pest or weed control at 200 ppm in series [7] is not below 80%. Also, in the series on Pyrenophora teres, the pest or weed control at 200 µg/mL is not below 80%.

`Cc1sc(Nc2cc(F)nc(F)c2)nc1C(=O)NC1CCC12CCCC2` (stereo not drawn) [I.s.43, 2-[(2,6-difluoro-4-pyridyl)amino]-5-methyl-N-spiro[3.4]octan-3-yl-thiazole-4-carboxamide] gave a melting point of 156 to 162 °C. For the same molecule, the pest or weed control at 200 ppm in [1] was not below 80%. Besides, the inhibition of growth at 200 ppm in series [8] was not below 80%. For the same molecule, the inhibition of growth at 200 ppm in series [2] was not below 80%. Further, the pest or weed control at 200 ppm in series [3] was not below 80%. In addition, in series [4], the inhibition of growth at 200 ppm was not below 80%. In addition, the inhibition of growth at 200 ppm in series [5] is not below 80%. Also, the inhibition of growth at 200 ppm in series [6] was not below 80%. The pest or weed control at 200 ppm in series [7] is not below 80%. In addition, the pest or weed control at 200 µg/mL with Pyrenophora teres was not below 80%.

`Cc1sc(Nc2cc(F)cc(F)c2)nc1C(=O)NC1CC12CC2` (stereo not drawn) [I.bb.3, 2-(3,5-difluoroanilino)-5-methyl-N-spiro[2.2]pentan-2-yl-thiazole-4-carboxamide]: the melting point was in the range of 145 to 175 °C. Also, the pest or weed control at 200 ppm in [1] is not below 80%. In [2], the inhibition of growth at 200 ppm was not below 80%. Moreover, the pest or weed control at 200 ppm in series [3] is not below 80%. The inhibition of growth at 200 ppm in series [4] was not below 80%. Also, in series [5], the inhibition of growth at 200 ppm was not below 80%. Also, the inhibition of growth at 200 ppm in series [6] is not below 80%. In [7], the pest or weed control at 200 ppm was not below 80%.
